Test results as given in PMC8252068, “Biochemical Investigation of the Interaction of pICln, RioK1 and COPR5 with the PRMT5–MEP50 Complex” (Chembiochem, 2021).
Read-outs that look alike come from different tables or passages of the source. Where a SMILES comes first, the peptide text is derived from it. The star is where a group is joined. FITC = O=C1OC2(c3ccc(O)cc3Oc3cc(O)ccc32)c2ccc(NC(=S)*)cc21; AEEA = NCCOCCOCC(=O)O

Tests used:
[1] = biological target: T1, TIM barrel domain of PRMT5 (residues 1–292) (Homo sapiens, UniProt O14744); experiment: Fluorescence polarisation direct binding assay, isolated TIM barrel
T1 construct: barrel domain (1-292 aa) of human PRMT5, N-terminally tagged with 6His-SUMO; 6His-SUMO (N, cleaved yes); made in house; host or cells: Escherichia coli BL21 CodonPlus (DE3) RIPL
Procedure: (§1) All proteins were expressed at the Protein Chemistry Facility (PCF) based in the MPI Dortmund.
(§2) For expression of the proteins, all constructs were subcloned into pOPIN vectors.
Full-length human pICln, N-terminally tagged with 6His-TRX followed by the 3C cleavage site, and TIM barrel domain (1-292 aa) of human PRMT5, N-terminally tagged with 6His-SUMO, were expressed in BL21 CodonPlus (DE3) RIPL strain of Escherichia coli. Bacteria with the respective plasmids were cultured in Terrific Broth medium. Expression of TIM barrel was auto-induced, with incubation of the starter-culture (starting OD of ~0.05) at 35 °C for 2.5h, followed by an overnight incubation (20 -24h) at 25 °C. Expression of pICln was induced at OD ~0.6-0.8 using 0.3 mM IPTG and E. coli was incubated at 20 °C for 20h. Bacteria were harvested by centrifugation and lysed. […]
To a protein solution (ca. 1 mg/ml) in 0.2 M bicarbonate buffer with 1 mM TCEP at pH 8.3, was added 10 mM Alexa 488 NHS-ester in DMSO (8 equiv), and the mixture was kept on ice, in darkness, overnight. […] Protein concentration was then determined using the NanoDrop […]
(§3) Fluorescence Polarisation (FP)
(§4) The assay was performed in a buffer of 50 mM HEPES, 250 mM NaCl, 1 mM TCEP, 0.01% (v/v) Tween 20, pH 8.0, in black, 384 well-plates, with a total volume of 10 μl per well. The analysed, FITC labelled peptides, or Alexa488-labelled pICln or RioK1, were tested at a final concentration of 1 nM, and the appropriate unlabelled protein was titrated as two-fold dilution series. The plates were incubated at 20-21 °C for 30 min in case of FITC -labelled peptides or 1-2h in case of the Alexa488-labelled protein, and analysed on a plate reader using 485 nm excitation and 535 nm emission wavelength. […]

[2] = biological target: T2, native PRMT5–MEP50 complex (Homo sapiens, UniProt O14744+Q9BQA1); experiment: Fluorescence polarisation direct binding assay, full-length PRMT5–MEP50; details: 20-21 °C, n=3
T2 construct: Full‐length PRMT5–MEP50; 6His-MBP with 3C site (N, cleaved yes); made in house; host or cells: HighFive insect cells (flashBAC baculovirus system)
Source text: as §1
For expression of the proteins, all constructs were subcloned into pOPIN vectors. […]
(§5) Expression of full-length human RioK1 tagged with 6NHis-3C and co-expression of full-length human PRMT5 (N-terminal 6His-MBP with 3C) with MEP50 (N-terminal 6His-TRX with 3C), and of TIM barrel (1-292 aa) with MEP50 (both N-terminally tagged with His-TRX with 3C cleavage site) was done using the Flash Bac Expression System (Oxford Expression Technologies, UK) with HighFive insect cells in Gibco Sf-900 III SFM medium. The cells were harvested by centrifugation and lysed.
(§6) All proteins were purified at the PCF (MPI Dortmund).
(§7) Protein purification was performed on HisTrap FF crude 5 ml Ni-based column, followed by the on-column treatment with 6His-tagged HRV-3C PreScission protease, or in case of the SUMO-tagged TIM barrel, with 6His-tagged SUMO protease. The cleaved proteins were then further purified using gel filtration chromatography with the HiLoad 26/60 Superdex 75 or 200 prep grade column. PRMT5 -MEP50, TIM-MEP50 and TIM barrel were stored in a buffer containing 50 mM HEPES, 250 mM NaCl, 1 mM TCEP with the pH adjusted to 8.0, whereas, pICln was stored in a buffer of 20 mM phosphate, 100 mM NaCl, 5 mM TCEP and pH of 7.5, whereas RioK1 was stored in a buffer of 50 mM Tris, 200 mM NaCl, 10% glycerol, 1 […]
(§8) Protein Labelling with Alexa 488
(§9) To a protein solution (ca. 1 mg/ml) in 0.2 M bicarbonate buffer with 1 mM TCEP at pH 8.3, was added 10 mM Alexa 488 NHS-ester in DMSO (8 equiv), and the mixture was kept on ice, in darkness, overnight. The protein was washed eight times with buffer (50 mM HEPES, 250 mM NaCl, 1 mM TCEP, 8.0 pH) using an Amicon® Ultra-0.5 mL spin filter. Protein concentration was then determined using the NanoDrop […]
as §3
as §4, with “wavelength. The assay was performed in” for “wavelength.”

[3] = biological target: T3, TIM–MEP50 complex (PRMT5 residues 1–292 co-expressed with MEP50) (Homo sapiens, UniProt O14744+Q9BQA1); experiment: Fluorescence polarisation direct binding assay, TIM–MEP50; details: 20-21 °C, n=3
T3 construct: truncated PRMT5 protein (residues 1–292), corresponding to the TIM barrel domain, was either expressed alone or co‐expressed as a complex with MEP50; His-TRX with 3C cleavage site (N, cleaved yes); made in house; host or cells: HighFive insect cells (flashBAC baculovirus system)
Procedure: as §1, §2
Full-length human pICln, N-terminally tagged with 6His-TRX followed by the 3C cleavage site, and TIM barrel domain (1-292 aa) of human PRMT5, N-terminally tagged with 6His-SUMO, were expressed in BL21 CodonPlus (DE3) RIPL strain of Escherichia coli. Bacteria with the respective plasmids were cultured in Terrific Broth medium. Expression of TIM barrel was auto-induced, with incubation of the starter-culture (starting OD of ~0.05) at 35 °C for 2.5h, followed by an overnight incubation (20 -24h) at 25 °C. Expression of pICln was induced at OD ~0.6-0.8 using 0.3 mM IPTG and E. coli was incubated at 20 °C for 20h. Bacteria were harvested by centrifugation and lysed.
as §5, §6, §7, §8, §9, §3
as §4, with “wavelength. The assay was performed in” for “wavelength.”

[4] = biological target: T4, TIM–MEP50 (Homo sapiens, UniProt O14744+Q9BQA1); experiment: Flow induced dispersion analysis (FIDA), TIM–MEP50; assay type: binding; details: technical triplicate
T4 construct: truncated PRMT5 protein (residues 1–292), corresponding to the TIM barrel domain, was either expressed alone or co‐expressed as a complex with MEP50; His-TRX with 3C cleavage site (N, cleaved yes); made in house; host or cells: HighFive insect cells (flashBAC baculovirus system)
Procedure: (§10) Nucleodur C18 Gravity column, with a flow rate of 0.56 ml/min, and the samples obtained from the stability assay were tested using 125 mm x 3 mm, 5 μm Macherey-Nagel Nucleodur C4 Gravity at a flow rate of 1 ml/min, in both cases using elution system: 5% → 65% MeCN (0.1% TFA) in H2O (0.1% TFA) over 14 min. HRMS analyses were performed on a LTQ Orbitrap mass spectrometer (Thermo Fisher Scientific, USA) using electrospray ionization. Concentrations of PRMT5 -MEP50, TIM -MEP50 and TIM were measured with the Bradford assay, using Protein Assay Dye Reagent from Bio -Rad (Cat. #500-0006; Bio- […]

[5] = biological target: T5, PRMT5–MEP50 (Homo sapiens, UniProt O14744+Q9BQA1); experiment: Flow induced dispersion analysis (FIDA), PRMT5–MEP50; assay type: binding; details: technical triplicate
T5 construct: Full‐length PRMT5–MEP50; 6His-MBP with 3C site (N, cleaved yes); made in house; host or cells: HighFive insect cells (flashBAC baculovirus system)
Procedure: as §10

[6] = FP using the native PRMT5–MEP50 complex, FITC peptide 1 nM, pH 8.0, 30 min, n.b. = no binding, read-out: K D (Table 2, peptides 1–16)
[7] = FP direct binding, FITC peptide 1 nM, protein titrated, HEPES buffer pH 8.0, 30 min, n.b. = no binding, read-out: K D value, TIM–MEP50

T2 sequence (O14744 whole entry): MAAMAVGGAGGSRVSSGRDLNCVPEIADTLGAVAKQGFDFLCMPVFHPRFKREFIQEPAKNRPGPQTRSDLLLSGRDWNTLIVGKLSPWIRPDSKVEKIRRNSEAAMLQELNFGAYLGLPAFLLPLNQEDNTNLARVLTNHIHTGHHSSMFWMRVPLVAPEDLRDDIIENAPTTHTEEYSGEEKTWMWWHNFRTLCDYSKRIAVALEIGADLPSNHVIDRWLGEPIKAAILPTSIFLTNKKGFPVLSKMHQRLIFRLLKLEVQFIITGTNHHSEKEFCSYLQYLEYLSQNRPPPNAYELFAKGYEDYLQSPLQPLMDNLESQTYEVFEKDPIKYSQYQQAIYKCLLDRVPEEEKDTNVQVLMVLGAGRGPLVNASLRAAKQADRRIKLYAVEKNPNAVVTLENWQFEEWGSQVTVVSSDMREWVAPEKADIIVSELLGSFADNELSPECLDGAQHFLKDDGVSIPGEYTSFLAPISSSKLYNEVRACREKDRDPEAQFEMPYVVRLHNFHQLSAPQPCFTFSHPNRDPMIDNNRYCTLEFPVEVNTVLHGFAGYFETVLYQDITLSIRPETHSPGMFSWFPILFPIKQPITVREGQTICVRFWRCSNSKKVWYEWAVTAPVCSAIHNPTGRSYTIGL
T2 sequence (Q9BQA1 whole entry partner): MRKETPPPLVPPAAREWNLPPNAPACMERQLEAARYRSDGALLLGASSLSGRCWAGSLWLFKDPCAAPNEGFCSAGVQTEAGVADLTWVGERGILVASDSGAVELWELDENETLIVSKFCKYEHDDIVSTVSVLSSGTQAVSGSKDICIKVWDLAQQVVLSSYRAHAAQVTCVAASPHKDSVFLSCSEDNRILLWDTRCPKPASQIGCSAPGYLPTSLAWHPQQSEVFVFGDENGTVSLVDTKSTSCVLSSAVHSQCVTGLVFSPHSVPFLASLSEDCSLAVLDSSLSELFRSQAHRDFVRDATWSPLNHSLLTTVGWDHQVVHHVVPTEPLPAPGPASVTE
T3 sequence (O14744 1-292): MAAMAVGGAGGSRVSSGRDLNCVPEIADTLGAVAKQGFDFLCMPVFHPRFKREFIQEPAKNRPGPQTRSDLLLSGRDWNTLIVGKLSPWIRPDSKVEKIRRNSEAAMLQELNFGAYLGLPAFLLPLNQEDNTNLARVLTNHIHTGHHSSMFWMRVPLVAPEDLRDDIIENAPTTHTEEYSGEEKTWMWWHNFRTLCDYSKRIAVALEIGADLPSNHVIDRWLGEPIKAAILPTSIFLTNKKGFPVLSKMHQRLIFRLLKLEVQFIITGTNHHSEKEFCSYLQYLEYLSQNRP
T3 sequence (Q9BQA1 whole entry partner, the tested form may be a part): as the sequence (Q9BQA1 whole entry partner) above
T1 sequence (O14744 1-292): as the sequence (O14744 1-292) above
T5 sequence (O14744 whole entry): as the sequence (O14744 whole entry) above
T5 sequence (Q9BQA1 whole entry partner): as the sequence (Q9BQA1 whole entry partner) above
T4 sequence (O14744 1-292): as the sequence (O14744 1-292) above
T4 sequence (Q9BQA1 whole entry partner, the tested form may be a part): as the sequence (Q9BQA1 whole entry partner) above

CC(C)[C@H](NC(=O)[C@H](CCCNC(=N)N)NC(=O)[C@H](CO)NC(=O)COCCOCCNC(=S)Nc1ccc2c(c1)C(=O)OC21c2ccc(O)cc2Oc2cc(O)ccc21)C(=O)N[C@H](C(=O)N1CCC[C@H]1C(=O)NCC(=O)N[C@@H](CCC(N)=O)C(=O)N[C@@H](Cc1ccccc1)C(=O)N[C@@H](CC(=O)O)C(=O)N[C@@H](CC(=O)O)C(=O)N[C@@H](C)C(=O)N[C@@H](CC(=O)O)C(N)=O)C(C)C [compound 1] ({FITC-AEEA}-SRVVPGQFDDAD-NH2)
Kd [1]: 2800 ± 70 nM | Kd [2, 6]: 522 ± 45 nM | Kd [3, 7]: 840 ± 150 nM

CSCC[C@H](NC(=O)COCCOCCNC(=S)Nc1ccc2c(c1)C(=O)OC21c2ccc(O)cc2Oc2cc(O)ccc21)C(=O)N[C@H](C(=O)N[C@@H](Cc1ccccc1)C(=O)N[C@@H](CCC(=O)O)C(=O)N[C@H](C(=O)NCC(=O)N[C@@H](CCC(N)=O)C(=O)N[C@@H](Cc1ccccc1)C(=O)N[C@@H](CC(=O)O)C(=O)N[C@@H](CC(=O)O)C(=O)N[C@@H](C)C(=O)N[C@@H](CCC(=O)O)C(=O)N[C@@H](CC(=O)O)C(N)=O)[C@@H](C)O)C(C)C [compound 3] ({FITC-AEEA}-MVFETGQFDDAED-NH2)
Kd [1]: 2400 ± 320 nM | Kd [2, 6]: 549 ± 119 nM | Kd [3, 7]: 460 nM

CC(C)[C@H](NC(=O)[C@@H](NC(=O)[C@@H]1CCCN1C(=O)[C@@H](NC(=O)COCCOCCNC(=S)Nc1ccc2c(c1)C(=O)OC21c2ccc(O)cc2Oc2cc(O)ccc21)[C@@H](C)O)[C@@H](C)O)C(=O)N[C@@H](C)C(=O)NCC(=O)N[C@@H](CCC(N)=O)C(=O)N[C@@H](Cc1ccccc1)C(=O)N[C@@H](CCC(=O)O)C(=O)N[C@@H](CC(=O)O)C(=O)N[C@@H](C)C(=O)N[C@@H](CC(=O)O)C(N)=O [compound 2] ({FITC-AEEA}-TPTVAGQFEDAD-NH2)
Kd [1]: 5800 ± 110 nM | Kd [2, 6]: 1140 ± 38 nM | Kd [3, 7]: 2100 ± 150 nM

Fitc‐O2Oc‐PTVAGQF‐NH2 [compound 4, DAB1 derived, fluorescently labelled linear peptide]
K D value, Full‐length PRMT5–MEP50 ([2]; FP direct binding, FITC peptide 1 nM, protein titrated two-fold, 50 mM HEPES, 250 mM NaCl, 1 mM TCEP, 0.01% Tween 20, pH 8.0, 30 min, n.b. = no binding): did not have affinity and n.b. | K D (Table 2, peptides 1–16) ([2]; FP using the native PRMT5–MEP50 complex, FITC peptide 1 nM, pH 8.0, 30 min, n.b. = no binding): n.b. | K D value, TIM–MEP50 ([3]; FP direct binding, FITC peptide 1 nM, protein titrated, HEPES buffer pH 8.0, 30 min, n.b. = no binding): did not have affinity and n.b.

pICln-Alexa488: full-length human pICln labelled with the fluorescent dye Alexa488
Kd ([4]; Supplement Table S4, indicator 10 nM, 25 °C, read-out: Affinity constant, TIM-MEP50 (Table S4, FIDA)): 64.1 nM | Kd ([4]; indicator (Alexa488-labelled protein) 10 nM, HEPES buffer pH 8.0, 0.01% Tween 20, 25 °C, read-out: K D for TIM–MEP50 (FIDA)): 64.1 nM | Kd ([5]; Supplement Table S4, indicator 10 nM, 25 °C, read-out: Affinity constant, PRMT5-MEP50 (Table S4, FIDA)): 39.3 nM | Kd ([5]; indicator (Alexa488-labelled protein) 10 nM, HEPES buffer pH 8.0, 0.01% Tween 20, 25 °C, read-out: K D for PRMT5–MEP50 (FIDA)): 39.3 nM | Kd ([2]; FP, Alexa488-labelled protein 1 nM, unlabelled complex titrated, pH 8.0, 1-2h, read-out: K D of Alexa488-labelled adaptor protein for PRMT5–MEP50 (FP)): 9.1 ± 1.5 nM | Kd ([3]; FP, Alexa488-labelled protein 1 nM, unlabelled complex titrated, pH 8.0, 1-2h, read-out: K D of Alexa488-labelled adaptor protein for TIM–MEP50 (FP)): 4.1 ± 0.6 nM
